The term IC50 denotes the concentration needed to halve the response being measured.

Structures are written as SMILES. ≈ marks a conversion by molar mass, not a printed value. Read-outs that look alike come from different tables or passages of the source.

One data set addresses T1, CB2 receptor (Homo sapiens, UniProt P34972).
T1 construct: expressed in transfected cells; host or cells: HEK293 (ATCC), stably transfected; membranes
The experiment in a line: Competitive radioligand binding assay, CB2. The settings on record: for Percent displacement, CB2: 10 μM, [3H]-CP55,940. The procedure:
(§1) HEK293 cells stably transfected with δ, κ and μ opioid subtypes were a generous gift from Roth Laboratories (University of North Carolina at Chapel Hill, N.C., USA). CB and opioid cells were maintained as previously described.
(§2) Membranes were purified by first washing the cells with cold PBS and scraping the cells into cold 50 mM Tris-HCl, pH 7.4 buffer, which was centrifuged at 5200× g for 10 min at 4 °C; next, the supernatant was discarded, and the pellet was washed with more Tris-HCl buffer, homogenized via a Sonic Dismembrator (Fisher Scientific, Pittsburgh, PA, USA) and then centrifuged at 24,000× g for 40 min at 4 °C. Finally, the pellet was re-suspended in cold 50 mM Tris-HCl buffer, aliquoted into 2 mL vials and stored at −80 °C. The total membrane protein concentration was measured using a Pierce BCA Protein Assay Kit (Thermo Scientific, Rockford, IL, USA) as per the manufacturer’s protocol.
(§3) Cannabinoid and opioid competitive radioligand binding assays were performed as previously described. Saturation experiments were performed for all the receptors to determine the receptor concentration and radioligand dissociation constant (Kd) for the membrane. Percent displacements were evaluated for all the cannabinoid and opioid subtypes with a triplicate of a fixed concentration (10 µg/mL for extracts and fractions and 10 μM for purified compounds). […] Control/test compounds were dissolved in DMSO at 10 μg/mL for extracts and fractions and 10 μM for purified compounds. […] The percent displacement was calculated to represent the ability of the samples to displace the radioligand binding for a given cannabinoid or opioid receptor subtype.
(§4) The percent displacement was calculated as follows: 100−binding of compound−nonspecific binding/specific binding×100
(§5) The competitive binding assays were performed using 12 serial dilutions of each compound ranging from 0.002 to 300 μM (control compounds were serially diluted from 10 μM to 0.06 nM). The cannabinoid assays were incubated for 90 min at 37 °C with gentle agitation. The opioid assays were incubated for 60 min at room temperature. Bound radioligands were collected on GF/C (cannabinoid) or GF/B plates (opioid) and washed 10 times with ice-cold 50 mM Tris-HCl (pH 7.4)/0.1% BSA (cannabinoid) or ice-cold 50 mM Tris-HCl (pH 7.4) (opioid). Radiodetection was measured with 50 µL (cannabinoid) or 25 µL (opioid) of MicroScint^TM-20 on a TopCount NXT HTS Microplate Scintillation Counter (PerkinElmer, Waltham, MA, USA). The IC50 and Ki values were calculated via a non-linear curve fit model using GraphPad Prism 5.0 software (GraphPad Software, Inc., San Diego, CA, USA). Each compound was tested in triplicate unless stated otherwise.

In a further data set the target is T2, δ opioid receptor (Homo sapiens, UniProt P41143).
T2 construct: host or cells: HEK293, stably transfected; membranes
T2 sequence (P41143 whole entry): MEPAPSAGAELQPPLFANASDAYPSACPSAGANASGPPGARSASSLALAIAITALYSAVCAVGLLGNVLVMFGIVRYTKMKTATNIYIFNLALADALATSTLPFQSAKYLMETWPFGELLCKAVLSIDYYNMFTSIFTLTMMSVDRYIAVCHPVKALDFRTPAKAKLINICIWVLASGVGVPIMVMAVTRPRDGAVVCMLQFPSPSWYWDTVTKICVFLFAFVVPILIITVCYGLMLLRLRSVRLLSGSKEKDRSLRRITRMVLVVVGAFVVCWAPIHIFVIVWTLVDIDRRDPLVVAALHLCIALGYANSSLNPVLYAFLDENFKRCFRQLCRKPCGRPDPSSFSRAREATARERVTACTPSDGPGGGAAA
The experiment in a line: Competitive radioligand binding assay, δ opioid. The following applies: for inhibition at 10 µM: [3H]-enkephalin (DPDPE), read-out: Percent displacement, Δ. As for the experimental part:
as §1, §2, §3, §4, §5

Data set [1] can be described thus: Cytotoxicity, Neutral Red, SK-MEL. The format is cell-based. The following applies: human, SK-MEL malignant melanoma cells, Na = not active up to 50 µg/mL. The procedure:
(§6) In vitro cytotoxic activity was determined against five human cancer cell lines—malignant melanoma (SK-MEL), epidermal carcinoma oral (KB), ductal carcinoma breast (BT-549), ovary carcinoma (SKOV-3) and cervical (HeLa) cancer cells—and two non-cancerous kidney cell lines (LLC-PK1 and Vero). All cell lines were obtained from the American Type Culture Collection (ATCC, Rockville, MD, USA). Each assay was performed in 96-well tissue culture-treated microplates. The cells were seeded at a density of 25,000 cells/well and incubated for 24 h. Samples at different concentrations were added, and the cells were incubated again for 48 h. At the end of the incubation, the cell viability was determined using Neutral Red dye according to a modification of the procedure used by Borenfreund et al.. IC50 values were determined from dose–response curves of the percent growth inhibition against test concentrations. Doxorubicin was used as a positive control, while DMSO was used as the negative (vehicle) control.

Data set [2] is described as follows: Cytotoxicity, Neutral Red, KB. The format is cell-based. The settings on record: human, KB epidermal carcinoma (oral) cells, Na = not active up to 50 µg/mL. The procedure:
as §6

Data set [3] is described as follows: Cytotoxicity, Neutral Red, BT-549. The format is cell-based. The settings on record: human, BT-549 breast ductal carcinoma cells, Na = not active up to 50 µg/mL. As for the experimental part:
as §6

The subject of the next data set is AP-1. The experiment in a line: Luciferase reporter assay, AP-1, HeLa. The format is cell-based, human. The settings on record: Homo sapiens; for IC50: read-out: IC50, Ap-1 (PMA). The procedure: (§7) Hela cells (or T98G cells) from ATCC were plated in white opaque 384-well plates at a density of 4300 cells/well in 30 µL of growth medium (DMEM with 10% FBS and 1% Pen/Strep). The next day, the medium was aspirated and replaced with DMEM containing 1% FBS. The cells were transfected with respective plasmids using X-tremeGENE HP DNA transfection reagent (Roche). After 24 h of transfection, the test agents were added to the transfected cells, followed 30 min later by an inducing agent: interleukin 6 (IL-6) for Stat3, TGF-β for Smad, m-wnt3a for Wnt and PMA for AP-1, NF-κB, E2F, Myc, ETS, Notch and Hedgehog. No inducer was added for FoXO and pTK. After 4 h or 6 h of induction, the cells were lysed via the addition of the One-Glo luciferase assay system (Promega; Madison, WI). The light output was detected in a GloMax®-Multi+ Detection System with Instinct® Software (Promega E 8051). This luciferase assay determines if the test agent is able to inhibit the activation of cancer-related signaling pathways. In the case of FoxO, the enhanced luciferase activity via the test agent was assessed.
In general terms: A reporter such as luciferase makes a cellular process visible.

The next data set concerns E2F. The experiment in a line: Luciferase reporter assay, E2F, HeLa. The following applies: Homo sapiens, HeLa; for IC50: read-out: IC50, E2F (PMA). Type of data set: cell-based, human. As for the experimental part: as §7
For a further data set, the system named is Myc. The experiment in a line: Luciferase reporter assay, Myc, HeLa. Type of data set: cell-based. The settings on record: Homo sapiens; for IC50: HeLa cells, inducer PMA, dash: not inhibited by more than 40% at 50 µmol/L. The procedure: as §7
The next data set has as its system FoxO. The experiment in a line: Luciferase reporter assay, FoxO, HeLa. Type of data set: cell-based. The following applies: Homo sapiens, no inducer; for IC50: HeLa cells, dash: no activity detected, read-out: IC50, FoxO (None). As for the experimental part:
as §7

In another data set the test system is Wnt. The data set can be described thus: Luciferase reporter assay, Wnt, HeLa. Type of data set: cell-based. The settings on record: Homo sapiens; for IC50: HeLa cells, inducer m-wnt3a, dash: not inhibited by more than 40% at 50 µmol/L. The procedure:
as §7

The mark [4] stands for this setting: AP1, read-out: Additive effect (in % inhibition): percentage of luciferase induction, AP-1 (PMA).
[5] abbreviates: read-out: Additive effect (in % inhibition): percentage of luciferase induction, E2f (PMA).

T1 sequence (P34972 whole entry): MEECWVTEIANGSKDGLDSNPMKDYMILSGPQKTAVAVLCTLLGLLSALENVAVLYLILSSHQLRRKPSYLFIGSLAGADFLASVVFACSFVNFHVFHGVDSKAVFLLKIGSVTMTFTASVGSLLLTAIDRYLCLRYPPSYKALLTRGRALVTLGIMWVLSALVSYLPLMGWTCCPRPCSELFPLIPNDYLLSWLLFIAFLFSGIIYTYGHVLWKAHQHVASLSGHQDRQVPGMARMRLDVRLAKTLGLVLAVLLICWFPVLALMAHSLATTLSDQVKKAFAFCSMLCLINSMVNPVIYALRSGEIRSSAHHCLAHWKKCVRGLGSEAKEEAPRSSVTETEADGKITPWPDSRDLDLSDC

In the case of `C=C(C)[C@H]1CC[C@H](C)C[C@@H]1c1c(O)cc(/C=C/c2ccccc2O)cc1O` [compound 6, machaeridiol B], the “Percent displacement, CB2” value on CB2 receptor is 56.8%. The Ki on CB2 receptor (* tested up to solubility limit, conc. at 33.3 μM and above precipitated, read-out: CB2 Ki ± SEM) is over 2.18 µM; at δ opioid receptor (NA = not active, read-out: Δ Ki ± SEM), 6.54 ± 0.77 µM; on δ opioid receptor (read-out: Δ pKi (converted)), 6.46 µM. The inhibition at 10 µM on δ opioid receptor was 50.2%. Moreover, the IC50 at 48 h in data set [1] is 32 µg/mL (≈ 87.8 µM); in data set [2], 38 µg/mL (≈ 104 µM); in [3], 36 µg/mL (≈ 98.8 µM). Further, the inhibition at 2 µM was determined as 70% with AP-1 (setting [4]); 80% in the data set with E2F (setting [5]); 111% in the data set with Myc (HeLa, 6 alone at 2 µM, compared to pTK as control, read-out: Additive effect (in % inhibition): percentage of luciferase induction, Myc (PMA)); 105% with FoxO (HeLa, 6 alone at 2 µM, read-out: Additive effect (in % inhibition): percentage of luciferase induction, FoxO (None)); 113% in the data set on Wnt (HeLa, 6 alone at 2 µM, compared to pTK as control, read-out: Additive effect (in % inhibition): percentage of luciferase induction, Wnt (m-wnt3a)). In addition, the IC50 in the data set on AP-1 was 5.9 µM; in the data set with E2F, 5.7 µM; in the data set with Myc, 5.3 µM; with FoxO, over 50 µM; in the data set with Wnt, 4.2 µM.
Turning to `C[C@H]1CC[C@H]2[C@H](C1)c1c(O)cc(/C=C/c3ccccc3O)cc1OC2(C)C` [compound 3, machaeriol C], the Ki was over 7.76 µM on CB2 receptor and 17.1 ± 2.61 µM at δ opioid receptor (Δ Ki ± SEM, NA = not active). For the same molecule, the “Percent displacement, CB2” value at CB2 receptor stood at 55.5%. For the same molecule, the inhibition at 10 µM on δ opioid receptor stood at 4.6%; in the data set on AP-1 (setting [4]) it was 61%; in the data set with E2F (setting [5]) it was 50%; in the data set on Myc (HeLa, 3 alone at 10 µM, compared to pTK as control, read-out: Additive effect (in % inhibition): percentage of luciferase induction, Myc (PMA)), 52%; in the data set on FoxO (HeLa, 3 alone at 10 µM, read-out: Additive effect (in % inhibition): percentage of luciferase induction, FoxO (None)), 120%; in the data set on Wnt (HeLa, 3 alone at 10 µM, compared to pTK as control, read-out: Additive effect (in % inhibition): percentage of luciferase induction, Wnt (m-wnt3a)), 81%. Besides, the IC50 at 48 h in [1] is 25 µg/mL (≈ 68.6 µM); in data set [2], over 50 µg/mL; in [3], over 50 µg/mL. The IC50 in the data set on AP-1 is 12 µM; with E2F, 14 µM; with Myc, 10 µM; in the data set with FoxO, over 50 µM; in the data set on Wnt it was 22 µM.

These data come from PMC10361207, “Cannabinoid and Opioid Receptor Affinity and Modulation of Cancer-Related Signaling Pathways of Machaeriols and Machaeridiols from Machaerium Pers” (Molecules, 2023).
